Test results taken from US12193443B2, “Use of benzoxepin derivatives as a herbicide” (ECOLE POLYTECHNIQUE, priority 2019, dated 2025).

Tested on: Arabidopsis thaliana seedlings
Experiment: Test of the herbicidal activity on Arabidopsis thaliana seedlings grown hydroponically at the cotyledon stage
Type: in vivo
Set-up: key: A for Active in the case where the plant is killed, that is to say when the two cotyledons have lost all of their green coloration; “N” for Not active, in the case where no biological activity is observed
Conditions: for Activity after 24 h: 24 h after application; for Activity after 96 h: 96 h after application
Method: The compounds were tested on Arabidopsis thaliana seedlings grown hydroponically at the cotyledon stage. Sterile seeds are germinated in the light in a culture plate, in the presence of 200 μL of nutrient medium. After five days of culture (time 0 of the trial), the nutrient medium is replaced with an equivalent volume (200 μL) of this same medium containing the compound to be tested at different concentrations. The manifestation of herbicidal activity is indicated by A for Active in the case where the plant is killed, that is to say when the two cotyledons have lost all of their green coloration, 24 h and 96 h after application of the product. The absence of herbicidal activity is indicated by “N” for Not active, in the case where no biological activity is observed.

SMILES | Activity after 24 h (10 μg/mL in nutrient medium) | Activity after 96 h (10 μg/mL in nutrient medium) | Activity after 24 h (50 μg/mL in nutrient medium) | Activity after 96 h (50 μg/mL in nutrient medium) | Activity after 24 h (100 μg/mL in nutrient medium) | Activity after 96 h (100 μg/mL in nutrient medium)
CC1=CCc2c(O)cc(CCc3ccccc3)cc2OC1 [Compound A] | N | N | A | A | A | A
CC1=CCOc2cc(CCc3ccccc3)c(C(=O)O)c(O)c2C1 [Compound C] | A | A | A | A | A | A
COC(=O)c1c(CCc2ccccc2)cc2c(c1O)CC=C(C)CO2 [Compound D] | N | N | N | A | N | A
Oc1cccc2c1CC=CCO2 [Compound E, reference compound] | N | N | N | N | N | N
CC1=CCc2c(cc(CCc3ccccc3)c(C(=O)O)c2O)OC1 [Compound H] | A | A | A | A | A | A
